# Values quoted from earlier work as cited in patent US20030099599A1, “Antibiotic spray” (priority 2001, published 2003).
# System: group A streptococcal tonsillopharyngitis
# Conditions: recurrence within 2 months
substance,measurement,value
penicillin,GAS tonsillopharyngitis treated with penicillin that recurs,About 25%
